From US20060100258A1, “Growth promotion method” (priority 2003, published 2006)

What was measured:
Type in all cases: in vivo
day-old broiler chicks = assay: Determination of dose range: maximum tolerated oral dose in day-old broiler chicks
Protocol: (§1) Day-old chicks were orally administered Iksin in DMSO at 100 μg/g, 125 μg/g, 150 μg/g and 200 μg/g body weight and in Distilled Water (DW)/5% Tween-20 at 100 μg/g, 200 μg/g, 400 μg/g and 500 μg/g body weight.
The maximum tolerated oral dose of Iksin for day-old broiler chicks was 200 μg/g Iksin/DMSO and ≧500 μg/g in DW/T20.

[1] = Plasma/blood levels of Iksin in chicks after a single oral dose; conditions: for peak levels (blood/plasma): observed at 48 h (FIG. 1)
Protocol: FIG. 1 is a graph showing plasma levels of Iksin in chicks after treatment with Iksin at 100 μg/g in DMSO and at 400 μg/g in distilled water/Tween20; and
as §1

chicks = assay: Effect on chick growth: weight gain after a single treatment
Protocol: FIG. 2 is a graph showing the average percentage weight increase in chicks after single dosing with Iksin at 12 μg/g in DMSO, 100 μg/g in DMSO, 200 μg/g in distilled water/Tween20 and 400 μg/g in distilled water/tween20 compared to untreated chicks.
as §1
Treatment with Iksin 12 μg/g DMSO, 200 and 400 μg/g DW/T20 gave a mean weight gain of 17%.

C/C(=C\c1ccc2c(c1)OCO2)[N+](=O)[O-] [Iksin, 3,4-methylenedioxy-β-methyl-β-nitrostyrene]
maximum tolerated oral dose (day-old broiler chicks; Iksin in DMSO): 200 µg/g | maximum tolerated oral dose (day-old broiler chicks; Iksin in DW/T20 (distilled water/5% Tween-20)): ≥ 500 µg/g | Iksin blood levels ([1]; single oral dose 12 μg/g DMSO): below the limits of detection | peak levels (blood/plasma) ([1]; single oral dose 100 μg/g DMSO): 850 µg/g | Iksin blood levels ([1]; single oral dose 200 μg/g DW): below the limits of detection | peak levels (blood/plasma) ([1]; single oral dose 400 μg/g DW): 850 µg/g | absorption from a single oral dosing ([1]; single oral dosing): Very little Iksin was absorbed | weight gain in chicks (chicks; all doses and formulations, 4 days after a single treatment (FIG. 2)): increased weight gain | mean weight gain (chicks; chicks, Iksin 12 μg/g DMSO, 200 and 400 μg/g DW/T20 (mean of these groups), 4 days after a single treatment): 17% | increase in weight gain over the group of control chicks (chicks; chicks, Iksin 100 μg/g DMSO, 4 days after a single treatment): 32%
